{
  "source": "patent US20230015823A1",
  "about": "“METHODS OF ADMINISTERING VOXELOTOR” (Global Blood Therapeutics, Inc., priority 2019, published 2023)",
  "key": {"[1]": {"biological_target": "CYP1A2 (Homo sapiens, UniProt P05177)", "sequence (P05177 whole entry)": "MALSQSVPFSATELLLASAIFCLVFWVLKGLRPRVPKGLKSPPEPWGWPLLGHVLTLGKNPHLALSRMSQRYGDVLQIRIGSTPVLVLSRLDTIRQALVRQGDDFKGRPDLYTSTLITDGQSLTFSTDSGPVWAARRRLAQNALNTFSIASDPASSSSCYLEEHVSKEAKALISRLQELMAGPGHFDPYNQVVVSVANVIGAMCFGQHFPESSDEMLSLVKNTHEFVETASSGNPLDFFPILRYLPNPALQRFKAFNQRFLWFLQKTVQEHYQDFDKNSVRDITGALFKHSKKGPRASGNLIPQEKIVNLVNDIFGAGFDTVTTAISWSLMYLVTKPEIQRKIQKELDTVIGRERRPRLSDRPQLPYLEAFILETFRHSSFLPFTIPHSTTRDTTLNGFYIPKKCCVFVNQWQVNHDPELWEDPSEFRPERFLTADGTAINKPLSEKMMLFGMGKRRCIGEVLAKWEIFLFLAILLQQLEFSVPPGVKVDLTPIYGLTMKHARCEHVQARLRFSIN", "assay": "Effect of voxelotor on PK of CYP1A2 probe substrate caffeine in healthy subjects", "assay_type": "in vivo", "experimental": "(§1) During Period 1, subjects received a single dose of caffeine 100 mg, warfarin sodium 10 mg+vitamin K 10 mg, omeprazole 20 mg, and midazolam hydrochloride 2 mg on Day 1. During Period 2, subjects received voxelotor 900 mg QD on Days 1 and 2 followed by 600 mg QD on Day 3, a single dose of caffeine 100 mg, warfarin sodium 10 mg+vitamin K 10 mg, omeprazole 20 mg, and midazolam hydrochloride 2 mg on Day 4, and voxelotor 600 mg QD on Days 4 through 7.\n(§2) Whole blood and plasma concentrations of voxelotor and plasma concentrations of caffeine, paraxanthine, S-warfarin, omeprazole, 5-hydroxyomeprazole, midazolam, and 1-hydroxymidazolam were determined using validated assays."}, "[2]": {"biological_target": "T1, CYP2C9 (Homo sapiens, UniProt P11712)", "T1 construct": "endogenous in cells; host or cells: healthy subjects, in vivo", "T1 sequence (P11712 whole entry)": "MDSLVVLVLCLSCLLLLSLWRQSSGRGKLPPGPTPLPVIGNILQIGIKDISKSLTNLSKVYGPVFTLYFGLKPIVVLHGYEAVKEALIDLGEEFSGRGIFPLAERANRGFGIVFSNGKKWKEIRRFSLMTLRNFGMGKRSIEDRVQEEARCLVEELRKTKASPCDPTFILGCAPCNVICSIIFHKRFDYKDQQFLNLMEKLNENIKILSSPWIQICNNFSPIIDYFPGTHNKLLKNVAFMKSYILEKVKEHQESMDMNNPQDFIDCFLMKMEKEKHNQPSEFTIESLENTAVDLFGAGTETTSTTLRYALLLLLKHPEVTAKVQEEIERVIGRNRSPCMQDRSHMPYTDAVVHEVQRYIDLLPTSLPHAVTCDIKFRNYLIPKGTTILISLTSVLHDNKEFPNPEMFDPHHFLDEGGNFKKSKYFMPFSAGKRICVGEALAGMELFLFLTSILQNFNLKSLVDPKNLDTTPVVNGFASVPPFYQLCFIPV", "assay": "Effect of voxelotor on PK of CYP2C9 probe substrate S-warfarin in healthy subjects", "assay_type": "in vivo", "experimental": "as §1, §2"}, "[3]": {"assay": "Clinical trials experience (HOPE trial): safety of OXBRYTA", "assay_type": "in vivo, human", "experimental": "The safety of OXBRYTA was evaluated in the HOPE trial based upon 88 patients who received OXBRYTA 1,500 mg and 91 patients who received placebo orally once daily [see Clinical Studies (14)]. Seventy-four patients received OXBRYTA 1,500 mg once daily for ≥24 weeks and 65 patients for ≥48 weeks.\nIn patients who received OXBRYTA 1,500 mg once daily the median age was 24 years (range: 12-59); 65% female; 66% Black or African American and 23% Arab/Middle Eastern; and 65% receiving hydroxyurea at baseline."}, "[4]": {"system": "sickle cell disease (SCD) patients", "assay": "HOPE trial: efficacy in sickle cell disease", "assay_type": "in vivo, human", "experimental": "The efficacy and safety of OXBRYTA in sickle cell disease (SCD) was evaluated in HOPE, a randomized, double-blind, placebo-controlled, multicenter trial [NCT 03036813]. In this study, 274 patients were randomized to daily oral administration of OXBRYTA 1,500 mg (N=90), OXBRYTA 900 mg (N=92), or placebo (N=92). Patients were included if they had from 1 to 10 vasoocclusive crisis (VOC) events within 12 months prior to enrollment and baseline hemoglobin (Hb) ≥5.5 to ≤10.5 g/dL. Eligible patients on stable doses of hydroxyurea for at least 90 days were allowed to continue hydroxyurea therapy throughout the study. Randomization was stratified by patients already receiving hydroxyurea (yes, no), geographic region (North America, Europe, Other), and age (12 to <17 years, 18 to 65 years). The trial excluded patients who received red blood cell (RBC) transfusions within 60 days and erythropoietin within 28 days of enrollment, had renal insufficiency, uncontrolled liver disease, were pregnant, or lactating.\nThe majority of patients had HbSS or HbS/beta^0-thalassemia genotype (90%) and were receiving background hydroxyurea therapy (65%). The median age was 24 years (range: 12 to 64 years); 46 (17%) patients were 12 to <17 years of age. Median baseline Hb was 8.5 g/dL (5.9 to 10.8 g/dL). One hundred and fifteen (42%) had 1 VOC event and 159 (58%) had 2 to 10 events within 12 months prior to enrollment.\nEfficacy was based on Hb response rate defined as a Hb increase of >1 g/dL from baseline to Week 24 in patients treated with OXBRYTA 1,500 mg versus placebo. […] No outlier subgroups were observed. The distribution of Hb change from baseline for individual patients completing 24 weeks of treatment with OXBRYTA 1,500 mg or placebo is depicted in FIG. 8.\nAdditional efficacy evaluation included change in Hb and percent change in indirect bilirubin and percent reticulocyte count from baseline to Week 24 (Table 4)."}, "[5]": {"system": "pregnant rats", "assay": "Pre- and postnatal development study in pregnant rats", "assay_type": "in vivo, rat", "experimental": "In a pre- and postnatal development study, voxelotor was administered orally to pregnant rats at 15, 50 and 250 mg/kg/day (gestation day 6 through lactation day 20). Maternal gestational body weights were decreased at 250 mg/kg/day, which continued to the end of lactation."}, "[6]": {"system": "Hb", "assay": "Pharmacodynamics: Hb oxygen affinity (p50) and clinical measures of hemolysis", "assay_type": "in vivo"}, "[7]": {"biological_target": "CYP2B6 (Homo sapiens, UniProt P20813)", "sequence (P20813 whole entry)": "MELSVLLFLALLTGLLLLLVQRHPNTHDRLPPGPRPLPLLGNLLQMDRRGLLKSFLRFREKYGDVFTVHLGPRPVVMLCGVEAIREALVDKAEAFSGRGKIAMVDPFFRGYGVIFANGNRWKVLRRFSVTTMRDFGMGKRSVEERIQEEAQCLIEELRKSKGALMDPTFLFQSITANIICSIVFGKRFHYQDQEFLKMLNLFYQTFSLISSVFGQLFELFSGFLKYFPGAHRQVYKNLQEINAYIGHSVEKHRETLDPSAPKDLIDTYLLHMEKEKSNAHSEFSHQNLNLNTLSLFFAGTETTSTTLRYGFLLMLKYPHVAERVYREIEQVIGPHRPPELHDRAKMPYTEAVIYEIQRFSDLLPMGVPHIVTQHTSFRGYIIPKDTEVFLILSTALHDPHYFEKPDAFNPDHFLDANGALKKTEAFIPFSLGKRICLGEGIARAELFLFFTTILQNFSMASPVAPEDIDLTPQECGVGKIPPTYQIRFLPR", "assay": "In vitro studies: CYP2B6", "assay_type": "in vitro ADME"}, "[8]": {"biological_target": "BCRP (Homo sapiens, UniProt Q9UNQ0)", "sequence (Q9UNQ0 whole entry)": "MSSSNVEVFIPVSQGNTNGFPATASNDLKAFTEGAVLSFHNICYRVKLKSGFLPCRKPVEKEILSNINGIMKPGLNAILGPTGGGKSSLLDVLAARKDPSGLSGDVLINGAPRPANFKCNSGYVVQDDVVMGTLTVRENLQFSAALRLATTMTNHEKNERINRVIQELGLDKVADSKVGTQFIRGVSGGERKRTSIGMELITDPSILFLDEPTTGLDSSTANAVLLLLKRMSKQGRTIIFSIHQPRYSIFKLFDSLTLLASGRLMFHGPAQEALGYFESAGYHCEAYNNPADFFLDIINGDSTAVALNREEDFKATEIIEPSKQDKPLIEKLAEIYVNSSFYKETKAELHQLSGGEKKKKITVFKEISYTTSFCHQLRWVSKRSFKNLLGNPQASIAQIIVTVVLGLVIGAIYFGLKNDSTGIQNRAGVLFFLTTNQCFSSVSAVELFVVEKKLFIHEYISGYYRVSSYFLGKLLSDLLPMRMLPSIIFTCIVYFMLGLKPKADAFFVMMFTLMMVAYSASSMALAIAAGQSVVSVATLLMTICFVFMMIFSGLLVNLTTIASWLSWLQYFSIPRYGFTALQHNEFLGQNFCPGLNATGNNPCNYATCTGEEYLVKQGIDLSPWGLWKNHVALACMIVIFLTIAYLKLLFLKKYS", "assay": "In vitro transporter studies: BCRP", "assay_type": "in vitro ADME"}, "[9]": {"biological_target": "OAT3 (Homo sapiens, UniProt Q8TCC7)", "sequence (Q8TCC7 whole entry)": "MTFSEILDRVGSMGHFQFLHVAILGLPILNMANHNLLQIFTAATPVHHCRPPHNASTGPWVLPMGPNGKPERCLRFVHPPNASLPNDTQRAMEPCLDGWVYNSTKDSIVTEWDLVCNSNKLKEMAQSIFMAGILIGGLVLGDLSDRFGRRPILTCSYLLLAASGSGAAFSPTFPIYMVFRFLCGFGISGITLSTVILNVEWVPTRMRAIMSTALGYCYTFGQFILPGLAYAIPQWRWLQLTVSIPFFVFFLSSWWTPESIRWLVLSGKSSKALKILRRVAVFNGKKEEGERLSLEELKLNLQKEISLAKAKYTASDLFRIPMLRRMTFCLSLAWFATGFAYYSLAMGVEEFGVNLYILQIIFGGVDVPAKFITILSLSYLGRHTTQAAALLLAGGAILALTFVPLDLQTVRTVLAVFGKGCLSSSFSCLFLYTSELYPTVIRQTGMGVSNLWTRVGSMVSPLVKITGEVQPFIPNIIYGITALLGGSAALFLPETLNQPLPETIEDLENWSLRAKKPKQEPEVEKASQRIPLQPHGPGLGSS", "assay": "In vitro transporter studies: OAT3", "assay_type": "in vitro ADME"}, "[10]": {"biological_target": "BSEP (Homo sapiens, UniProt O95342)", "sequence (O95342 whole entry)": "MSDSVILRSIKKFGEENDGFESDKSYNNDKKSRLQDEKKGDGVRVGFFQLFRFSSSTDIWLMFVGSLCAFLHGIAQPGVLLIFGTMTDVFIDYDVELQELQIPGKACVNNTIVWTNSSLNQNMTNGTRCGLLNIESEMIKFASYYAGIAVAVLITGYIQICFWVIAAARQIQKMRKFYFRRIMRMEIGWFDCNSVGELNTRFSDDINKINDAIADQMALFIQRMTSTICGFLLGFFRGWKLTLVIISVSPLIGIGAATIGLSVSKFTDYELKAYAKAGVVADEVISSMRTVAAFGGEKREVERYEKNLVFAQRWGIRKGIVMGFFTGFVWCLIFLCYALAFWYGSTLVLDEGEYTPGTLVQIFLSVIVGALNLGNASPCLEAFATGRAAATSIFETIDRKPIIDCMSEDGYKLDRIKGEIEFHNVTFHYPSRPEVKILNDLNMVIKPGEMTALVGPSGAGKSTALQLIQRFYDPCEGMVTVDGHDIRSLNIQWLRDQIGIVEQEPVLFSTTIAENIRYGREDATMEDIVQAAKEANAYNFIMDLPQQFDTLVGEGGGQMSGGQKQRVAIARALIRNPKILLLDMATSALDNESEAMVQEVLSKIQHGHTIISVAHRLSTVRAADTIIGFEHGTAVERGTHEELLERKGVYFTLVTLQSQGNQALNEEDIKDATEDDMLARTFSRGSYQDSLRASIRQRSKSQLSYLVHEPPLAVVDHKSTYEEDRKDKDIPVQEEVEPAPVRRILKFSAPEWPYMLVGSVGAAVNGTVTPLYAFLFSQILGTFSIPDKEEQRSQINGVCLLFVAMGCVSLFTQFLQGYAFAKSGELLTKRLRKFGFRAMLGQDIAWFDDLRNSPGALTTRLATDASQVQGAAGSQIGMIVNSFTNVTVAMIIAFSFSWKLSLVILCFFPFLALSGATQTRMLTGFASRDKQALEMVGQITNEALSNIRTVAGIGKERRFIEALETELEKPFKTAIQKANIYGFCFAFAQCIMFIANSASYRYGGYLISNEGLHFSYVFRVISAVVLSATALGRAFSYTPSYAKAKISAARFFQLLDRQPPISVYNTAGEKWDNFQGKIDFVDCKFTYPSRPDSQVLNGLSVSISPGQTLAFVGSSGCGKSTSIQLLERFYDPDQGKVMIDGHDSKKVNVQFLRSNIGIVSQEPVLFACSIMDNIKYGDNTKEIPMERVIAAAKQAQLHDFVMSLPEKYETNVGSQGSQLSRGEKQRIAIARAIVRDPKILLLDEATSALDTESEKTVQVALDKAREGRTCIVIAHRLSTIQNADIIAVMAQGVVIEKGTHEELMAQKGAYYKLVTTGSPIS", "assay": "In vitro transporter studies: BSEP", "assay_type": "in vitro ADME"}, "[11]": {"system": "bacterial reverse mutation", "assay": "Reverse mutation bacterial (Ames) test", "assay_type": "cell-based", "text": "Voxelotor was not genotoxic in the reverse mutation bacterial (Ames) test, rat Comet assay, or rat micronucleus assay."}, "[12]": {"system": "rats", "assay": "Fertility and early embryonic development study", "assay_type": "in vivo, rat", "experimental": "In a fertility and early embryonic development study, voxelotor was administered orally to rats at 15, 50, and 250 mg/kg/day. Males were dosed 28 days prior to mating through cohabitation and females were dosed 14 days prior to mating through gestation Day 7."}, "[13]": {"biological_target": "CYP2D6 (Homo sapiens, UniProt P10635)", "sequence (P10635 whole entry)": "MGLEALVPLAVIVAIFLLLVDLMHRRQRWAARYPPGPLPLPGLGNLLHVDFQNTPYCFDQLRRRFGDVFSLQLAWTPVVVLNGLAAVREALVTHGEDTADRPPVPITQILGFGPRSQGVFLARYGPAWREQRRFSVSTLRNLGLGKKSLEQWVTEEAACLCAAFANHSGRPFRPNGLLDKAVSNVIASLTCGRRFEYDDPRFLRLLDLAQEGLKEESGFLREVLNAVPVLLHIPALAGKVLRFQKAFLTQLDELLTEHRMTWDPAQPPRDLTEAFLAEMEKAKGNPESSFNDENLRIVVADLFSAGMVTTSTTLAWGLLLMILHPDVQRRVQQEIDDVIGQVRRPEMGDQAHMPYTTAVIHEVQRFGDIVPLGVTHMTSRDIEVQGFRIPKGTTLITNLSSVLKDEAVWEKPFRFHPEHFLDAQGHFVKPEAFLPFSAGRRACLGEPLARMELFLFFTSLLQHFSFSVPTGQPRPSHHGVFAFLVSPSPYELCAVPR"}, "[14]": {"settings": "healthy subjects, multiple doses of voxelotor 900/600 mg QD"}},
  "data": [
    {"compound": "CC(C)n1nccc1-c1ncccc1COc1cccc(O)c1C=O", "note": "[voxelotor, 2-hydroxy-6-((2-(1-isopropyl-1H-pyrazol-5-yl)pyridin-3-yl)methoxy)benzaldehyde]", "values": [
      {"measurement": "effect of voxelotor on PK of CYP1A2 probe substrate (caffeine)", "setting": "[1]; [14]", "value": "no clinically meaningful effect"},
      {"measurement": "inhibition of CYP1A2 in vivo", "setting": "[1]; human, in vivo", "value": "not"},
      {"measurement": "effect of voxelotor on PK of CYP2C9 probe substrate (S-warfarin)", "setting": "[2]; [14]", "value": "no clinically meaningful effect"},
      {"measurement": "inhibition of CYP2C9 in vivo", "setting": "[2]; human, in vivo", "value": "not"},
      {"measurement": "Adverse reaction: Abdominal Pain (grouped PTs)", "setting": "[3]; HOPE, 1,500 mg (N = 88)", "value": "17 (19%) n (%)"},
      {"measurement": "Adverse reaction: Diarrhea", "setting": "[3]; HOPE, 1,500 mg (N = 88)", "value": "18 (20%) n (%)"},
      {"measurement": "Adverse reaction: Fatigue", "setting": "[3]; HOPE, 1,500 mg (N = 88)", "value": "12 (14%) n (%)"},
      {"measurement": "Adverse reaction: Headache", "setting": "[3]; HOPE, 1,500 mg (N = 88)", "value": "23 (26%) n (%)"},
      {"measurement": "Adverse reaction: Nausea", "setting": "[3]; HOPE, 1,500 mg (N = 88)", "value": "15 (17%) n (%)"},
      {"measurement": "Adverse reaction: Pyrexia", "setting": "[3]; HOPE, 1,500 mg (N = 88)", "value": "11 (12%) n (%)"},
      {"measurement": "Adverse reaction: Rash (grouped PTs)", "setting": "[3]; HOPE, 1,500 mg (N = 88)", "value": "12 (14%) n (%)"},
      {"measurement": "patients with serious adverse reactions", "setting": "[3]; HOPE, 1,500 mg once daily, 3/88", "value": 3, "unit": "%"},
      {"measurement": "permanent discontinuation due to an adverse reaction (Grades 1-4)", "setting": "[3]; HOPE, 1,500 mg once daily, 4/88", "value": 5, "unit": "%"},
      {"measurement": "dosage modifications (dose reduction or dosing interruption) due to an adverse reaction", "setting": "[3]; HOPE, 36/88", "value": 41, "unit": "%"},
      {"measurement": "patients with serious hypersensitivity reactions", "setting": "[3]; patients treated", "value": "< 1", "unit": "%"},
      {"measurement": "Hemoglobin, adjusted mean change from baseline to Week 24", "setting": "[4]; 1,500 mg QD (N = 90)", "value": 1.14, "unit": "g/dL"},
      {"measurement": "Indirect Bilirubin, adjusted mean percent change from baseline to Week 24", "setting": "[4]; 1,500 mg QD (N = 90)", "value": "−29.08", "unit": "%"},
      {"measurement": "Percent Reticulocyte Count, adjusted mean percent change from baseline to Week 24", "setting": "[4]; 1,500 mg QD (N = 90)", "value": "−19.93", "unit": "%"},
      {"measurement": "Hb response rate (Hb increase of >1 g/dL from baseline to Week 24)", "setting": "[4]; 1,500 mg daily oral, 46/90, placebo 6.5%", "value": 51.1, "unit": "%"},
      {"measurement": "findings in offspring", "setting": "[5]; maternal dose 250 mg/kg/day, throughout lactation, weaning and maturation", "value": "reduced survival and reduced body weights"},
      {"measurement": "maternal gestational body weights", "setting": "[5]; pregnant rats, 250 mg/kg/day oral, gestation day 6 through lactation day 20", "value": "decreased"},
      {"measurement": "exposure at 250 mg/kg/day relative to exposure in patients at the recommended dose", "setting": "[5]; rats, maternal dose 250 mg/kg/day", "value": "approximately 2.8 times"},
      {"measurement": "clinical measures of hemolysis (indirect bilirubin and % reticulocytes)", "setting": "[6]; in vivo", "value": "dose-dependent reduction"},
      {"measurement": "Hb oxygen affinity as determined by the change in p50", "setting": "[6]; linearly correlated with voxelotor exposure", "value": "dose-dependent increase in Hb oxygen affinity"},
      {"measurement": "induction of CYP2B6", "setting": "[7]", "value": "inducer"},
      {"measurement": "inhibition of CYP2B6", "setting": "[7]", "value": "reversible and time-dependent inhibitor"},
      {"measurement": "inhibition of BCRP", "setting": "[8]", "value": "not an inhibitor"},
      {"measurement": "substrate of BCRP", "setting": "[8]", "value": "not a substrate"},
      {"measurement": "inhibition of OAT3", "setting": "[9]", "value": "not an inhibitor"},
      {"measurement": "inhibition of BSEP", "setting": "[10]", "value": "not an inhibitor"},
      {"measurement": "substrate of BSEP", "setting": "[10]", "value": "not a substrate"},
      {"measurement": "genotoxicity", "setting": "[11]", "value": "not genotoxic"},
      {"measurement": "exposure at 250 mg/kg/day relative to human exposure at 1,500 mg/day", "setting": "[12]", "value": "approximately 5 times"},
      {"measurement": "sperm motility", "setting": "[12]; 250 mg/kg/day, changes in sperm morphology also occurred", "value": "decreased"},
      {"measurement": "effect on fertility or reproductive function", "setting": "[12]; oral 15, 50, 250 mg/kg/day", "value": "no effect on fertility or reproductive function"},
      {"measurement": "inhibition of CYP2D6 in vivo", "setting": "[13]", "value": "not"}
    ]}
  ]
}
